From publication PMC3909768 (Journal of Cancer, 2014)
Where “and” joins values, the source holds several entries; their conditions need not be identical. Equal values may be shown once.

How the values were obtained:
[1] = Brain and prostate distribution after single IV in rats; details: rat, in vivo, 1 mg/kg; for concentration at 30 min / concentration at 120 min: single IV 1 mg/kg
[2] = tested on: CYP3A; assay: CYP3A induction in human hepatocytes; format: in vitro ADME; details: for CYP 3A induction, Positive control, %: human hepatocytes, 48 hours
[3] = molecular target: GABA receptors; details: read-out: IC50, GABA receptors; ref [6]; cited from earlier work
[4] = tested on: LnCaP-Z2 tumors; assay: LnCaP-Z2 xenograft antitumor efficacy; format: in vivo, male CB17-SCID mice; details: 50 mg/kg once daily
[5] = Drug concentration in plasma and xenograft tumor after 21-day dosing; details: male, CB17-SCID, mouse, in vivo, 50 mg/kg

SMILES	Kp at 30 min [1]	Kp at 120 min [1]	concentration at 30 min ([1]; Prostate) [ng/g]	concentration at 120 min ([1]; Prostate) [ng/g]	concentration at 30 min ([1]; brain) [ng/g]	concentration at 120 min ([1]; brain) [ng/g]	concentration at 30 min ([1]; plasma) [ng/mL]	concentration at 120 min ([1]; plasma) [ng/mL]	CYP3A induction, in words ([2]; 1uM)	CYP 3A induction, Positive control, % ([2]; 1 uM) [%]	CYP 3A induction, Positive control, % ([2]; 10 uM) [%]	IC50 [3] [µM]	antitumor efficacy, in words [4]	Kp at 24 h [5]	concentration at 24 h [5]
CNC(=O)c1ccc(N2C(=S)N(c3cnc(C#N)c(C(F)(F)F)c3)C(=O)C23CCC3)cc1F [ARN-509]	1.94 ± 0.24	3.15 ± 0.94	487 ± 73	482 ± 120	241 ± 21	176 ± 31	251 ± 29	153 ± 10	still active	16.3±2.5	102.7±13.0	3	–	–	–
CC(O)(CS(=O)(=O)c1ccc(F)cc1)C(=O)Nc1ccc(C#N)c(C(F)(F)F)c1 (stereo not drawn) [Bicalutamide, reference compound]	–	–	–	–	–	–	–	–	–	–	–	–	less effective	2.5 ± 1.36	3250 ng/mL and 8740 ng/g
